Patent US9371365B2, “Modified compstatin with peptide backbone and C-terminal modifications” (The Trustees of the University of Pennsylvania, priority 2009, dated 2016)
Read-outs that look alike come from different tables or passages of the source.

Legend:
C3b = target: T1, C3b (Homo sapiens, UniProt P01024); test: SPR analysis of binding kinetics to immobilized C3b; conditions: SPR, Table 2-1
T1 construct: biotin (chemical biotinylation of C3b)
Protocol: (§1) The kinetics of the interaction between C3b and each compstatin analog was analyzed by SPR on a Biacore 3000 instrument (GE Healthcare Corp., Piscataway, N.J.) at 25° C. using PBS-T (10 mM sodium phosphate, 150 mM NaCl, 0.005% Tween-20, pH 7.4) as the running buffer, as described above. In brief, biotinylated C3b (30 μg/mL) was immobilized on a streptavidin-coated sensor chip, and a two-fold serial dilution series (1 μM-500 pM) of each analog was injected for 2 min at 30 μl/min, with a dissociation phase of 5-10 min. Peptide [Trp(Me)^4]-Ac-compstatin was included in each experimental series as an internal control and reference. Data analysis was performed using Scrubber (BioLogic Software, Campbell, Australia). The signals from an untreated flow cell and an ensemble of buffer blank injections were subtracted to correct for buffer effects and injection artifacts. Processed biosensor data were globally fitted to a 1:1 Langmuir binding model, and the equilibrium dissociation constant (KD) was calculated from the equation KD=kd/ka. Peptide solutions were injected in duplicate in every experiment, and each screening assay was performed at least twice.
as §1, with “in Example 1.” for “above.”, “μg/ml)” for “μg/mL)”, “Peptide [Trp(Me)^4]-Ac-compstatin was included in each experimental series as an internal control and reference.” left out

[1] = In vivo retention: plasma half-life in baboons by LC-MS/MS; design: species or system baboon (P. Anubis); conditions: for half-life: baboon (P. Anubis)
Protocol: A 96-well plate HLB Oasis 10 mg (Waters, Milford, Mass.) was employed for extraction. The SPE material was conditioned by addition of 500 μl of methanol followed by addition of 500 μL of milli-Q water. Sample was prepared by addition of the internal standard followed by 1:1 dilution with 4% H3PO4. After loading the sample, washing was carried out with 500 μL of 5% methanol in 0.1% formic acid. Sample was eluted with 150 μL of 65% methanol in 0.1% formic acid and collected in the collection plate. Solvent was evaporated to dryness in a speed-vac concentrator and reconstituted in 5% acetonitrile in 0.1% formic acid. Samples were kept at −20° C. until analysis.
Baboon plasma samples, 40 μL, were mixed with internal standard and dissolved 1:1 with 40 mM ammonium carbonate buffer. Rapigest detergent was added to a final concentration of 0.1%. Disulfide bridges were reduced in 5 mM DTT for 30 min at 60° C. Alkylation of cysteines was done by addition of iodoacetamide to a final concentration of 15 mM and incubation for 30 min in dark. The sample was enzymatically digested by addition of 16 μL of a 1 μG/μL trypsin solution and incubation overnight at 37° C. After that, the sample pH was lowered with 5% TFA to induce detergent degradation. To avoid nonspecific adsorption of very hydrophobic peptides, acetonitrile was added to 20%. The samples were centrifuged at 6° C. and 14000 rpm for 30 min and the supernatant was diluted with 0.1% formic acid to reduce acetonitrile concentration to 10% prior to filtration with a 10 kDa cut-off microcon centrifugal filter (Millipore, Billerica, Mass.). The filter was washed with 50 μL of 10% ACN in 0.1% formic acid and the collected sample was evaporated to dryness and reconstituted with 10% ACN in 0.1% formic acid.
LC-MS/MS analysis was performed on a SYNAPT HDMS (Waters, Milford, Mass.) controlled by MassLynx 4.1 software (Waters) and equipped with a nanoESI source. Each sample was injected in triplicate. A nanoACQUITY UPLC (Waters) system was used for peptide separation by reversed-phase liquid chromatography. After injection, analytes were trapped for 3 min with 3% mobile phase A (0.1% formic acid in water) at 5 μl/min on a 5 μm Symmetry C18 column (180 μm×20 mm, Waters) and further separated on a 1.7 μm BEH130 C18 column (75 μm×150 mm, Waters). The analytical column temperature was held at 35° C. Peptides were separated at flow rate 0.3 μl/min. The gradient was linear 3-40% B (0.1% formic acid in acetonitrile), either 50 min long, or 60 min for the digested samples. The capillary voltage was 3.2 kV, the cone voltage was 35 V and the source temperature was 100° C. [Glu1]-fibrinogen peptide was used for lock-mass correction with a sampling rate of 30 s. Mass spectra were acquired in positive mode over an m/z range 400-2000 Da at scan rate 0.6 s. The time window used for the MS/MS function was ±3 min of the retention time of the selected peptide. The presence of the analyte was confirmed by MS/MS. Selectivity was studied by analysis of blank samples to determine the presence of any interference coeluting with the analyte.
Juvenile baboons (P. Anubis, Baboon Research Resources, University of Oklahoma) weighing 5-8 kg were used. Three baboons were used for the study; one for each compound. All animals received a bolus dose of peptides (10 mg) by injection through the peripheral vein. […]

[2] = test system: classical pathway of complement; test: Inhibition of classical pathway complement activation, ELISA in human serum; assay type: biochemical; conditions: relative to peptide 1; NA: not active
Protocol: The ability of the compstatin analogs to inhibit the activation of the classical pathway of complement was assessed by ELISA (Mallik et al., 2005, J Med Chem 48:274-86). In brief, complement was activated in human serum using an antigen-antibody complex in the presence or absence of compstatin analogs, and the deposition of C3 fragments on the plate surface was detected using an HRP-conjugated polyclonal anti-C3 antibody. […] The percent inhibition was plotted against the peptide concentration, and the resulting data set was fitted to the logistic dose-response function using Origin 7.0 software. IC50 values were obtained from the fitted parameters that produced the lowest χ^2 value. Each analog was assayed at least three to seven times.
The ability of the compstatin analogs to inhibit the activation of the classical pathway of complement was assessed by ELISA as described in Example 1. Each conjugate was assayed at least three times.

[3] = test system: classical pathway of complement; conditions: data from Sahu et al., 1996; cited from earlier work

T1 sequence (P01024 23-667 limits assumed): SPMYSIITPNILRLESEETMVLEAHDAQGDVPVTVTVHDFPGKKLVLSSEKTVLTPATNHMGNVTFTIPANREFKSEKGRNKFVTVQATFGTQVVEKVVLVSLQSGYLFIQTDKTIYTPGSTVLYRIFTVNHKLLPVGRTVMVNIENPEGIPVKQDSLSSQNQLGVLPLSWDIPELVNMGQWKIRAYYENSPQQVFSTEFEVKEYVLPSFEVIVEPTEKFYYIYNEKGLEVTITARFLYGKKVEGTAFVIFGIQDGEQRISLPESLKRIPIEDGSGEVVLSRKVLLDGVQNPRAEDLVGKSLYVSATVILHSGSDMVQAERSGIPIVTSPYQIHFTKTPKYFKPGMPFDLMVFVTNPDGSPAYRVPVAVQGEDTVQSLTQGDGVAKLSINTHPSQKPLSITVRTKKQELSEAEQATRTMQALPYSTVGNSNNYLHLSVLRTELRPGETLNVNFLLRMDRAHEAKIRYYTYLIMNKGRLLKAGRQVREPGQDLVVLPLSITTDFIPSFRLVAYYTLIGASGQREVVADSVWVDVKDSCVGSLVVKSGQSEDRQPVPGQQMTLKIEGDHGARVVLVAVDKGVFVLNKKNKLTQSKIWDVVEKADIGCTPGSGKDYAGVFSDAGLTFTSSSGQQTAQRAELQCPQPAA
T1 sequence (P01024 749-1663 limits assumed): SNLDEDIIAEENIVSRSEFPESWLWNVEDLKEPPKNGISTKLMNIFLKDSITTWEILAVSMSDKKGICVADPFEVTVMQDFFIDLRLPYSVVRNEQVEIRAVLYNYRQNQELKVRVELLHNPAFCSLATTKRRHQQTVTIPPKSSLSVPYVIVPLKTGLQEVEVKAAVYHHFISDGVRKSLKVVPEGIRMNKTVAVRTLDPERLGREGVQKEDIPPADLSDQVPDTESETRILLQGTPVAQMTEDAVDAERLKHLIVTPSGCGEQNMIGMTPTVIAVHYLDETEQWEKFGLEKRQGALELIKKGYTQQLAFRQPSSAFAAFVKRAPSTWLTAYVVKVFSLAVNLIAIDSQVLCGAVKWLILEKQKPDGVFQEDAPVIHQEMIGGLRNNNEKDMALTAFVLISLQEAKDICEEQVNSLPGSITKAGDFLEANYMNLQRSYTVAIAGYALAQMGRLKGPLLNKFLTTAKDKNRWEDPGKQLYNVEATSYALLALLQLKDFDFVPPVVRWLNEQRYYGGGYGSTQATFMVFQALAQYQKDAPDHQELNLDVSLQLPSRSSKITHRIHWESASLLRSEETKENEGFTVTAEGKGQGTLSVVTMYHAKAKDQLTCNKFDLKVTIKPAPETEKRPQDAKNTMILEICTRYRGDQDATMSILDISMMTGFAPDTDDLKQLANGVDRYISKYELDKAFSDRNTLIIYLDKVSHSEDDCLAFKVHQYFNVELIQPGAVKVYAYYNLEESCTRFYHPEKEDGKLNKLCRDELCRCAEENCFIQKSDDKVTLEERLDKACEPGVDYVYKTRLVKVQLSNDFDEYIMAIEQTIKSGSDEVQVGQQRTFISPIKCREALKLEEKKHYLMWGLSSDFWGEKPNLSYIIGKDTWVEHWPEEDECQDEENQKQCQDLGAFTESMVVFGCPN

Kd (C3b)	Koff (C3b)	Kon (C3b)	Molecule	half-life ([1]; in vivo, iv, 10 mg)	fold improvement of half-life ([1]; in vivo)	half-life ([1]; in vivo, baboon, intravenous bolus 10 mg, read-out: plasma half-life (converted))	fold improvement of half-life ([1]; relative to unconjugated peptide 17, baboon)	IC50-fold change [2]	IC50 [3]
4.7 nM	5.6 10^−3, s^−1	1.2 10^6, M^−1 · s^−1	CC[C@H](C)[C@H](NC(C)=O)C(=O)N[C@H]1CSSC[C@@H](C(=O)N[C@H](C(=O)NCCOCCOCCOCC(=O)NCCOCCOCCOCC(=O)N[C@@H](CCCCNC(=O)CCNS(=O)(=O)c2ccc3ccccc3c2)C(N)=O)[C@@H](C)CC)NC(=O)[C@H](CCCNC(=N)N)NC(=O)[C@H](Cc2c[nH]cn2)NC(=O)[C@H](C)NC(=O)CN(C)C(=O)[C@H](Cc2c[nH]c3ccccc23)NC(=O)[C@H](CC(=O)O)NC(=O)[C@H](CCC(N)=O)NC(=O)[C@H](Cc2cn(C)c3ccccc23)NC(=O)[C@H](C(C)C)NC1=O [Peptide 17-ABM]	5 h	5 fold				
32 nM	3.6 10^−3, s^−1	0.1 10^6, M^−1 · s^−1	CC[C@H](C)[C@H](NC(C)=O)C(=O)N[C@H]1CSSC[C@@H](C(=O)N[C@H](C(=O)NCCOCCOCCOCC(=O)NCCOCCOCCOCC(=O)N[C@@H](CCCCNC(=O)Cn2cc(C(=O)N[C@@H](CCCNC(=N)N)C(=O)N[C@@H](CC(C)C)C(=O)N[C@H](C(=O)N[C@@H](CCC(=O)O)C(=O)N[C@@H](CC(=O)O)C(=O)N[C@H](C(=O)N[C@H]3CSSC[C@@H](C(=O)N[C@@H](CC(C)C)C(=O)N[C@@H](Cc4c[nH]c5ccccc45)C(=O)N[C@@H](CCC(=O)O)C(=O)N[C@@H](CC(=O)O)C(=O)N[C@@H](CC(=O)O)C(N)=O)NC(=O)CNC(=O)[C@H](Cc4c[nH]c5ccccc45)NC(=O)[C@H](CCCNC(=N)N)NC(=O)[C@@H]4CCCN4C(=O)[C@H](CC(C)C)NC3=O)[C@@H](C)CC)[C@@H](C)CC)nn2)C(N)=O)[C@@H](C)CC)NC(=O)[C@H](CCCNC(=N)N)NC(=O)[C@H](Cc2c[nH]cn2)NC(=O)[C@H](C)NC(=O)CN(C)C(=O)[C@H](Cc2c[nH]c3ccccc23)NC(=O)[C@H](CC(=O)O)NC(=O)[C@H](CCC(N)=O)NC(=O)[C@H](Cc2cn(C)c3ccccc23)NC(=O)[C@H](C(C)C)NC1=O [Peptide 17-ABP]			21 h	21 fold		
			Ac-I[CVYQDWGAHRC]T-NH2 [Peptide 1, reference compound]					1	2400 nM
